In PMC8228365, “Degradation Products of Tryptophan in Cell Culture Media: Contribution to Color and Toxicity” (International Journal of Molecular Sciences, 2021):
Read-outs that look alike come from different tables or passages of the source. Each block holds one compound with its values, some of them ahead of it.

How the values were obtained:
[1] = test system: CHOK1 cells; assay: CellTiter-Glo cytotoxicity assay in CHOK1 cell line; format: cell-based, Chinese hamster; conditions: Cricetulus griseus
Experimental: (§1) To assay the potential toxicity induced in the CHO cell culture by the Trp degradation products found in this study, a cytotoxicity assay CellTiter-Glo® Luminescent Cell Viability Assay (Cat #G7572, Promega, Madison, WI, USA) was used, following the manufacturer’s instructions. Briefly, the cells were seeded with 25,000 viable cells per cavity of a 96-well opaque white cell culture plate (Thermo Fisher, Waltham, MA, USA) in 80 µL of a pre-warmed medium. Tryptophan degradation compounds were added in triplicates to the cells, ranging from 1 mM to 46 nM. A DMSO control was added in the same concentration range as the tryptophan degradation compounds were diluted. The dose response curves were fitted with a 4PL model by GraphPad Prism v.7 (GraphPad Software, San Diego, CA, USA) after luminescence readout with an EnVision 2104 Multilabel Reader (Perkin Elmer, Waltham, MA, USA).

[2] = Color measurement (ΔE*) of standards spiked into water; format: physicochemical; conditions: theoretical 500 µM, 1% DMSO, ΔE* > 1 deemed significant
Experimental: (§2) Compounds were dissolved in DMSO at 50 mM and then spiked into the solutions to achieve a final compound concentration of 500µM. Some of the tested compounds formed a precipitate immediately upon spiking of the DMSO solution. As the precipitates in solution can interfere with the absorption measurement, each sample was centrifuged prior to taking absorption measurements, meaning that the final concentrations were not all at 500 µM. […] In stability experiments, eight of these nine compounds (all except 46) were present in at least one condition in the degraded water samples, and four of these nine compounds (28, 31, 38, and 46) were present in the degraded feed.
(§3) Absorbance measurements were taken in the range of 380 nm to 780 nm (20 nm steps) of 100 µL of the samples in four technical replicates (Envision, Perkin Elmer, Waltham, MA, USA). From the absorbance values, the change in color was calculated using L*a*b* and ΔE* values according to DIN 5033-3 and DIN 6174 norms. The CIE 1931 standard observer (2°) and the D65 illuminant were selected.
(§4) Chemical standards were prepared as 50 mM stocks in DMSO and then spiked into the aqueous solutions (either water or feed) to achieve a theoretical compound concentration of 500 µM (1% DMSO). The solutions were centrifuged, and the absorbance measurements of these solutions was measured and converted to ΔE* values as described above. The control condition was pure DMSO (1% v/v).

[3] = test system: CHOZN 6 cells; assay: CellTiter-Glo cytotoxicity assay in CHOZN 6 cell line; format: cell-based, Chinese hamster; conditions: Cricetulus griseus, read-out: [GI50] CHOZN 6
Experimental: as §1

[4] = test system: CHOK1 GS cells; assay: CellTiter-Glo cytotoxicity assay in CHOK1 GS cell line; format: cell-based, Chinese hamster; conditions: Cricetulus griseus
Experimental: To assay the potential toxicity induced in the CHO cell culture by the Trp degradation products found in this study, a cytotoxicity assay CellTiter-Glo® Luminescent Cell Viability Assay (Cat #G7572, Promega, Madison, WI, USA) was used, following the manufacturer’s instructions. Briefly, the cells were seeded with 25,000 viable cells per cavity of a 96-well opaque white cell culture plate (Thermo Fisher, Waltham, MA, USA) in 80 µL of a pre-warmed medium. […] A DMSO control was added in the same concentration range as the tryptophan degradation compounds were diluted.

[5] = test system: CHOZN 10 cells; assay: CellTiter-Glo cytotoxicity assay in CHOZN 10 cell line; format: cell-based, Chinese hamster; conditions: Cricetulus griseus, read-out: [GI50] CHOZN 10
Experimental: as §1

[6] = Color measurement (ΔE*) of standards spiked into feed; format: physicochemical; conditions: theoretical 500 µM, 1% DMSO, ΔE* > 1 deemed significant
Experimental: as §2, §3, §4

[7] = test system: CHO cells; assay: CHO cell toxicity summarised across the four CHO cell lines; format: cell-based, Chinese hamster; conditions: Cricetulus griseus; across all four CHO cell lines; read-out: GI50 across all cell lines
Experimental: as §1

[8] = test system: cancer cell lines; parameters: method as in PMID 22047643; conditions: cited from earlier work
[9] = CHO-K1, CHOK1 cell line, 1 mM to 46 nM, 4PL fit, read-out: [GI50] CHOK1
[10] = CHOZN 6 cell line, 1 mM to 46 nM, 4PL fit
[11] = CHO-K1, CHOK1 GS cell line, 1 mM to 46 nM, 4PL fit, read-out: [GI50] CHOK1 GS
[12] = CHOZN 10 cell line, 1 mM to 46 nM, 4PL fit
[13] = CHO-K1, read-out: [GI50] CHOK1 GS

Color change as measured by ΔE* in water [2]: significant color change
SMILES: O=C(O)c1cc2c([nH]c3ccccc32)c(-c2ccnc3ccccc23)n1 [Compound 38]
GI50 [1, 9]: 124 µM | GI50 [3, 10]: 98.9 µM | GI50 [4, 11]: 118 µM | GI50 [5, 12]: 114 µM

Color change as measured by ΔE* in feed [6]: significant color change
SMILES: O=C(O)c1cc2c([nH]c3ccccc32)c(C(=O)c2c[nH]c3ccccc23)n1 [Compound 31, 1-(1H-Indol-3-ylcarbonyl)-9H-pyrido[3,4-b]indole-3-carboxylic acid]
GI50 [1, 9]: 21.6 µM | GI50 [3, 10]: 13 µM | GI50 [7]: 10 to 22 µM | GI50 [4, 11]: 34.6 µM | GI50 [5, 12]: 14.4 µM | toxicity against some cancer cell lines [8]: demonstrated toxicity against some cancer cell lines

SMILES: Oc1ccnc2ccccc12 [Compound 20, 4-Hydroxyquinoline]
GI50 [4, 13]: > 1000 µM

SMILES: NCCc1c(O)[nH]c2ccccc12 [Compound 9]
GI50 [4, 11]: > 1000 µM

SMILES: N[C@@H](Cc1c(Cc2c[nH]c3ccccc23)[nH]c2ccccc12)C(=O)O [Compound 14, 2-(3-Indolylmethyl)-L-tryptophan]
GI50 [4, 11]: > 1000 µM

SMILES: Cc1nccc2c1[nH]c1ccccc12 [Compound 28, Harmane]
GI50 ([1]; CHO-K1, read-out: [GI50] CHOK1): 74.9 µM | Color change as measured by ΔE* in feed [6]: significant color change | GI50 [3]: 65.5 µM | GI50 [4, 13]: 170 µM | GI50 [5]: 77.3 µM

SMILES: CC1NC(C(=O)O)CC12C(=O)Nc1ccccc12 (stereo not drawn) [Compound 25]
GI50 [4, 11]: > 1000 µM

SMILES: Cc1ncc(CO)c(C2NC(C(=O)O)Cc3c2[nH]c2ccccc32)c1O (stereo not drawn) [Compound 42]
GI50 [4, 11]: > 1000 µM

Color change as measured by ΔE* in water [2]: significant color change
SMILES: O=C(O)c1cc2c([nH]c3ccccc32)c(-c2ccccc2)n1 [Compound 16]
GI50 [1, 9]: 74.9 µM | GI50 [3, 10]: 88.5 µM | GI50 [4, 11]: 76.6 µM | GI50 [5, 12]: 57.6 µM

SMILES: OC12CCNC1Nc1ccccc12 (stereo not drawn) [Compound 10]
GI50 [4, 11]: > 1000 µM

SMILES: CC(=O)c1nccc2c1[nH]c1ccccc12 [Compound 62, 1-Acetyl-β-carboline]
GI50 [4, 11]: > 1000 µM

SMILES: O=CCc1c[nH]c2ccccc12 [Compound 12, Indole-3-acetaldehyde]
GI50 [1, 9]: 116 µM | GI50 [3, 10]: 54.5 µM | GI50 [4, 11]: 64.5 µM | GI50 [5, 12]: 92.3 µM

SMILES: O=C(c1c[nH]c2ccccc12)c1nccc2c1[nH]c1ccccc12 [Compound 32, 1H-Indol-3-yl-9H-pyrido[3,4-b]indol-1-ylmethanone]
GI50 [4, 11]: > 1000 µM | toxicity against some cancer cell lines [8]: demonstrated toxicity against some cancer cell lines

SMILES: NC(CC(=O)c1ccccc1NC=O)C(=O)O (stereo not drawn) [Compound 2, N-Formylkynurenine]
GI50 [4, 11]: > 1000 µM

SMILES: NC(CC1(O)C(=O)Nc2ccccc21)C(=O)O [Compound 4, 3-(3-Hydroxy-2-oxo-2,3-dihydro-1H-indol-3-yl)-L-alanine (diOia)]
GI50 [4, 11]: > 1000 µM

SMILES: NC(=O)Cc1c[nH]c2ccccc12 [Compound 47, 3-Indoleacetamide]
GI50 [4, 11]: > 1000 µM

SMILES: c1ccc2ncccc2c1 [Compound 8, Quinoline]
GI50 [4, 13]: > 1000 µM
